Molecules are shown by their SMILES.

One may read the IC50 as the concentration that gives 50% inhibition. A low value points to higher potency.

This test relates to MCF7. Kind of test: Antiproliferative activity against human MCF7 cells after 72 hrs by MTT assay. It counts as functional, cell-based. The conditions noted are these: MCF7, 72 h. In general terms: Tetrazolium dyes change colour on reduction, which living cells bring about.
In turn, `C/C=C(\C)C(=O)N[C@@H](c1ccccc1)[C@@H](O)C(=O)O[C@H]1C[C@@]2(O)[C@@H](OC(=O)c3ccccc3)[C@@H]3[C@]4(OC(C)=O)CO[C@@H]4C[C@@H](O)[C@@]3(C)C(=O)C(=O)C(=C1C)C2(C)C` registered an IC50 of 80 nM.

Regarding `CC(=O)O[C@H]1C[C@H]2OC[C@@]2(OC(C)=O)[C@H]2[C@H](OC(=O)c3ccccc3)[C@]3(O)C[C@H](OC(=O)[C@H](O)[C@@H](NC(=O)c4ccccc4)c4ccccc4)C(C)=C([C@@H](O)C(=O)[C@]12C)C3(C)C`, the IC50 came to 10 nM. Take `CC(=O)O[C@@]12CO[C@@H]1C[C@H](O)[C@@]1(C)C(=O)C(=O)C3=C(C)[C@@H](OC(=O)[C@H](O)[C@@H](NC(=O)c4ccccc4)c4ccccc4)C[C@@](O)([C@@H](OC(=O)c4ccccc4)[C@H]21)C3(C)C`: half-maximal inhibition (IC50) required 64 nM. Take `C/C=C(\C)C(=O)N[C@@H](c1ccccc1)[C@@H](O)C(=O)O[C@H]1C[C@@]2(O)[C@@H](OC(=O)c3ccccc3)[C@@H]3[C@]4(OC(C)=O)CO[C@@H]4C[C@H](O)[C@@]3(C)C(=O)[C@H](OC(C)=O)C(=C1C)C2(C)C` [CEPHALOMANNINE]: the midpoint of inhibition, the IC50, lay at 6 nM. This IC50 is about 11-fold lower than that of the compound before.

The record behind these values is ChEMBL document CHEMBL1150812, “New taxane analogues from the needles of Taxus canadensis” (J Nat Prod, 2001).
